The text below walks through data of PubChem BioAssay AID1745844 (Carcinogenic Potency Database (CPDB), 2022).

The source made the active and inactive calls. How the calls were made is not given here. Peptide text beside a SMILES is read from it.

Broadly, the TD50 is the dose at which the toxic effect under study appears in half of the subjects.

In this series the test system is rodent lifetime carcinogenesis bioassay, tumor incidence TD50. The series is described as follows: chronic cancer bioassays in animals – CPDB, compiled studies (AID 1745844).

Turning to `Cc1cccn2c1nc1ccc(N)nc12`, the TD50 by setting is: (mouse, strain CDF1, females, in feed, site: blood vessels, lesion: hemangioendothelial sarcoma, dosed 67 weeks, study length 67 weeks) 13.8 mg/kg/day; (mouse, strain CDF1, females, in feed, site: blood vessels, lesion: several types, types named in the paper, dosed 67 weeks, study length 67 weeks) 10.9 mg/kg/day; (mouse, strain CDF1, females, in feed, site: liver, lesion: hepatocellular adenoma, dosed 67 weeks, study length 67 weeks) 44.1 mg/kg/day; (mouse, strain CDF1, females, in feed, site: liver, lesion: hepatocellular carcinoma, dosed 67 weeks, study length 67 weeks) 18.5 mg/kg/day; (mouse, strain CDF1, females, in feed, site: liver, lesion: several types, types named in the paper, dosed 67 weeks, study length 67 weeks) 5.08 mg/kg/day; (mouse, strain CDF1, females, in feed, site: lung, lesion: adenoma, dosed 67 weeks, study length 67 weeks) 166 mg/kg/day. The TD50 reads like this: (mouse, strain CDF1, females, in feed, site: lung, lesion: several types, types named in the paper, dosed 67 weeks, study length 67 weeks) 308 mg/kg/day; (mouse, strain CDF1, males, in feed, site: blood vessels, lesion: hemangioendothelial sarcoma, dosed 57 weeks, study length 57 weeks) 7.81 mg/kg/day; (mouse, strain CDF1, males, in feed, site: blood vessels, lesion: hemangioendothelioma, dosed 57 weeks, study length 57 weeks) 98.7 mg/kg/day; (mouse, strain CDF1, males, in feed, site: blood vessels, lesion: several types, types named in the paper, dosed 57 weeks, study length 57 weeks) 5.77 mg/kg/day; (mouse, strain CDF1, males, in feed, site: liver, lesion: hepatocellular adenoma, dosed 57 weeks, study length 57 weeks) 98.7 mg/kg/day; (mouse, strain CDF1, males, in feed, site: lung, lesion: adenoma, dosed 57 weeks, study length 57 weeks) 1000 mg/kg/day. For the same compound, the TD50 (rat, strain F344/DuCrj, females, in feed, site: Zymbal's gland, lesion: squamous-cell carcinoma, dosed 67 weeks, study length 67 weeks) is 12.7 mg/kg/day; the TD50 (rat, strain F344/DuCrj, females, in feed, site: brain, lesion: astrocytoma, dosed 67 weeks, study length 67 weeks) is 95.9 mg/kg/day; the TD50 (rat, strain F344/DuCrj, females, in feed, site: clitoral gland, lesion: one or several types, types not named, dosed 67 weeks, study length 67 weeks) was 56.1 mg/kg/day; the TD50 (rat, strain F344/DuCrj, females, in feed, site: colon, lesion: adenocarcinoma, dosed 67 weeks, study length 67 weeks) was 95.9 mg/kg/day; the TD50 (rat, strain F344/DuCrj, females, in feed, site: colon, lesion: adenoma, dosed 67 weeks, study length 67 weeks) was 71 mg/kg/day; the TD50 (rat, strain F344/DuCrj, females, in feed, site: colon, lesion: several types, types named in the paper, dosed 67 weeks, study length 67 weeks) is 39 mg/kg/day. The TD50 was 8.39 mg/kg/day (rat, strain F344/DuCrj, females, in feed, site: liver, lesion: several types, types named in the paper, dosed 67 weeks, study length 67 weeks); 56.1 mg/kg/day (rat, strain F344/DuCrj, females, in feed, site: small intestine, lesion: adenocarcinoma, dosed 67 weeks, study length 67 weeks); 146 mg/kg/day (rat, strain F344/DuCrj, females, in feed, site: small intestine, lesion: adenoma, dosed 67 weeks, study length 67 weeks); 71 mg/kg/day (rat, strain F344/DuCrj, females, in feed, site: small intestine, lesion: mucinous carcinoma, dosed 67 weeks, study length 67 weeks); 26.1 mg/kg/day (rat, strain F344/DuCrj, females, in feed, site: small intestine, lesion: several types, types named in the paper, dosed 67 weeks, study length 67 weeks); 10.2 mg/kg/day (rat, strain F344/DuCrj, males, in feed, site: Zymbal's gland, lesion: squamous-cell carcinoma, dosed 67 weeks, study length 67 weeks). In addition, the TD50 runs as follows: (rat, strain F344/DuCrj, males, in feed, site: colon, lesion: adenocarcinoma, dosed 67 weeks, study length 67 weeks) 16.9 mg/kg/day; (rat, strain F344/DuCrj, males, in feed, site: colon, lesion: adenoma, dosed 67 weeks, study length 67 weeks) 15.4 mg/kg/day; (rat, strain F344/DuCrj, males, in feed, site: colon, lesion: several types, types named in the paper, dosed 67 weeks, study length 67 weeks) 9.45 mg/kg/day; (rat, strain F344/DuCrj, males, in feed, site: liver, lesion: several types, types named in the paper, dosed 67 weeks, study length 67 weeks) 3.25 mg/kg/day; (rat, strain F344/DuCrj, males, in feed, site: small intestine, lesion: adenocarcinoma, dosed 67 weeks, study length 67 weeks) 6.71 mg/kg/day; (rat, strain F344/DuCrj, males, in feed, site: small intestine, lesion: adenoma, dosed 67 weeks, study length 67 weeks) 8.21 mg/kg/day. The TD50 reads like this: (rat, strain F344/DuCrj, males, in feed, site: small intestine, lesion: mucinous carcinoma, dosed 67 weeks, study length 67 weeks) 236 mg/kg/day; (rat, strain F344/DuCrj, males, in feed, site: small intestine, lesion: several types, types named in the paper, dosed 67 weeks, study length 67 weeks) 5.89 mg/kg/day.

As to `CCN(CC)CCOc1ccc(C(=C(Cl)c2ccccc2)c2ccccc2)cc1`, the TD50 is 3.62 mg/kg/day (inactive) (mouse, strain C57L/He x 129/Rr x C3HeB/De x SWR/Ly, females, by gavage, site: any site (literature study), lesion: several types, types named in the paper, dosed 69 weeks, study length 69 weeks) and 5 mg/kg/day (inactive) (mouse, strain C57L/He x 129/Rr x C3HeB/De x SWR/Ly, females, by gavage, site: lung, lesion: one or several types, types not named, dosed 69 weeks, study length 69 weeks). The carcinogen call (mouse, strain C57L/He x 129/Rr x C3HeB/De x SWR/Ly, females, by gavage, site: any site (literature study), lesion: several types, types named in the paper, dosed 69 weeks, study length 82 weeks) was “negative (inactive)”.

For `OCC(CO)N[C@H]1C[C@](O)(CO)[C@@H](O)[C@H](O)[C@H]1O`, the carcinogen call reads like this: (mouse, strain Charles River CD1, females, by gavage, site: liver, lesion: hepatocellular adenoma, dosed 101 weeks, study length 101 weeks) “negative (inactive)”; (mouse, strain Charles River CD1, females, by gavage, site: lung, lesion: alveolar/bronchiolar adenoma, dosed 101 weeks, study length 101 weeks) “negative (inactive)”; (mouse, strain Charles River CD1, males, by gavage, site: liver, lesion: hepatocellular adenoma, dosed 83 weeks, study length 83 weeks) “negative (inactive)”; (mouse, strain Charles River CD1, males, by gavage, site: liver, lesion: hepatocellular carcinoma, dosed 83 weeks, study length 83 weeks) “negative (inactive)”; (rat, strain F344/DuCrj, females, by gavage, site: liver, lesion: one or several types, types not named, dosed 104 weeks, study length 104 weeks) “negative (inactive)”. For the same compound, the TD50 was 1370 mg/kg/day (inactive) (mouse, strain Charles River CD1, males, by gavage, site: lung, lesion: alveolar/bronchiolar adenoma, dosed 83 weeks, study length 83 weeks); 119 mg/kg/day (inactive) (rat, strain F344/DuCrj, females, by gavage, site: mammary gland, lesion: fibroadenoma, dosed 104 weeks, study length 104 weeks); 575 mg/kg/day (inactive) (rat, strain F344/DuCrj, males, by gavage, site: liver, lesion: hepatocellular adenoma, dosed 104 weeks, study length 104 weeks); 1740 mg/kg/day (inactive) (rat, strain F344/DuCrj, males, by gavage, site: liver, lesion: hepatocellular carcinoma, dosed 104 weeks, study length 104 weeks); 9.27 mg/kg/day (inactive) (rat, strain F344/DuCrj, males, by gavage, site: testis, lesion: interstitial-cell tumor, dosed 104 weeks, study length 104 weeks).

As for `O=NN1CCC(O)C1` (stereo unspecified), the TD50 is, setting by setting: (rat, strain Sprague-Dawley, both sexes, in drinking water, site: any site (literature study), lesion: malignant tumor, dosed 112 weeks, study length 112 weeks) 7.65 mg/kg/day; (rat, strain Sprague-Dawley, both sexes, in drinking water, site: liver, lesion: hepatocellular carcinoma, dosed 112 weeks, study length 112 weeks) 8.11 mg/kg/day.

Turning to `COC(=O)[C@H](Cc1ccccc1)NC(=O)[C@@H](N)CC(=O)O` (H-Asp-Phe-OMe), the carcinogen call runs as follows: (rat, strain Charles River CD (Sprague-Dawley), females, in feed, site: any site (literature study), lesion: several types, types named in the paper, dosed 104 weeks, study length 104 weeks) “negative (inactive)”; (rat, strain Charles River CD (Sprague-Dawley), females, in feed, site: liver, lesion: hepatoma, benign, dosed 104 weeks, study length 104 weeks) “negative (inactive)”; (rat, strain Charles River CD (Sprague-Dawley), males, in feed, site: any site (literature study), lesion: several types, types named in the paper, dosed 104 weeks, study length 104 weeks) “negative (inactive)”; (rat, strain Slc-Wistar, females, in feed, site: brain, lesion: several types, types named in the paper, dosed 104 weeks, study length 104 weeks) “negative (inactive)”. For the same compound, the TD50 is 118000 mg/kg/day (inactive) (rat, strain Charles River CD (Sprague-Dawley), females, in feed, site: brain, lesion: several types, types named in the paper, dosed 104 weeks, study length 104 weeks); 666000 mg/kg/day (inactive) (rat, strain Charles River CD (Sprague-Dawley), males, in feed, site: brain, lesion: several types, types named in the paper, dosed 104 weeks, study length 104 weeks); 1.3e+06 mg/kg/day (inactive) (rat, strain Charles River CD (Sprague-Dawley), males, in feed, site: liver, lesion: hepatoma, benign, dosed 104 weeks, study length 104 weeks); 186000 mg/kg/day (inactive) (rat, strain Slc-Wistar, males, in feed, site: brain, lesion: several types, types named in the paper, dosed 104 weeks, study length 104 weeks).

`O=CNNC=O`: the TD50 was 7820 mg/kg/day (inactive) (mouse, strain Swiss albino, females, in drinking water, site: liver, lesion: hepatoma, dosed 83 weeks, study length 83 weeks); 89200 mg/kg/day (mouse, strain Swiss albino, females, in drinking water, site: liver, lesion: several types, types named in the paper, dosed 83 weeks, study length 83 weeks); 2170 mg/kg/day (mouse, strain Swiss albino, females, in drinking water, site: lung, lesion: adenocarcinoma, dosed 83 weeks, study length 83 weeks); 561 mg/kg/day (mouse, strain Swiss albino, females, in drinking water, site: lung, lesion: adenoma, dosed 83 weeks, study length 83 weeks); 571 mg/kg/day (mouse, strain Swiss albino, females, in drinking water, site: lung, lesion: several types, types named in the paper, dosed 83 weeks, study length 83 weeks); 11300 mg/kg/day (inactive) (mouse, strain Swiss albino, males, in drinking water, site: liver, lesion: hepatoma, dosed 83 weeks, study length 83 weeks). Further, the TD50 (mouse, strain Swiss albino, males, in drinking water, site: liver, lesion: several types, types named in the paper, dosed 83 weeks, study length 83 weeks) turned out to be 8140 mg/kg/day; the TD50 (mouse, strain Swiss albino, males, in drinking water, site: lung, lesion: adenocarcinoma, dosed 83 weeks, study length 83 weeks) amounted to 4530 mg/kg/day; the TD50 (mouse, strain Swiss albino, males, in drinking water, site: lung, lesion: adenoma, dosed 83 weeks, study length 83 weeks) came to 779 mg/kg/day; the TD50 (mouse, strain Swiss albino, males, in drinking water, site: lung, lesion: several types, types named in the paper, dosed 83 weeks, study length 83 weeks) is 806 mg/kg/day.

`CC(=O)N(O)c1ccc(-c2ccccc2)cc1`: the carcinogen call (rat, strain Not specified, females, in feed, site: liver, lesion: one or several types, types not named, dosed 43 weeks, study length 65 weeks) is “negative (inactive)”.
